Values of other authors in patent US9850267B2, “Crystalline fosaprepitant dicyclohexylamine salt and its preparation” (Navinta, LLC, priority 2015, dated 2017).

Details: white to off-white amorphous powder

solubility in water: freely soluble in water
SMILES: C[C@@H](O[C@H]1OCCN(Cc2nc(O)n(P(=O)(O)O)n2)[C@H]1c1ccc(F)cc1)c1cc(C(F)(F)F)cc(C(F)(F)F)c1 [Fosaprepitant dimeglumine, fosaprepitant dimeglumine]
